Results reported in patent US12312370B2, “Immunoproteasome inhibitors” (Principia Biopharma Inc., priority 2017, dated 2025).

Tests used:
Assay type in all cases: biochemical
[1] = biological target: immunoproteasome LMP7/B5i subunit (Homo sapiens, UniProt P28062); test: Caliper-based proteasome enzymatic activity assay, LMP7; details: human recombinant immunoproteasome 0.3 nM, FAM-labeled peptide substrate 1 μM, rt 3 h; read-out: LMP7 subunit IC50
[2] = biological target: immunoproteasome LPM2/β1i subunit (Homo sapiens, UniProt P28065); test: Caliper-based proteasome enzymatic activity assay, LMP2; details: human recombinant immunoproteasome 0.3 nM, FAM-labeled peptide substrate 1 μM, rt 2 h
[3] = biological target: constitutive proteasome β5c unit (Homo sapiens, UniProt P28074); test: Caliper-based proteasome enzymatic activity assay, β5c; details: human recombinant constitutive proteasome 0.3 nM, FAM-labeled peptide substrate 1 μM, rt 3 h; read-out: β5c subunit IC50

**Q.** Which results are given for `CC(C)C=C(C#N)C(=O)N1CCC[C@H]1CNC(=O)N[C@@H](Cc1ccccc1)B(O)O` [Example 34, ((R)-1-(3-(((S)-1-(2-cyano-4-methylpent-2-enoyl)pyrrolidin-2-yl)methyl)ureido)-2-phenylethyl)boronic acid]?
**A.** IC50 [1]: 0.231 µM; IC50 [2]: > 5 µM; IC50 [3]: > 5 µM

**Q.** Which results are given for `CC(C)C=C(C#N)C(=O)N1CCCC[C@H]1CNC(=O)N[C@@H](Cc1ccccc1)B(O)O` [Example 35, ((R)-1-(3-(((S)-1-(2-cyano-4-methylpent-2-enoyl)piperidin-2-yl)methyl)ureido)-2-phenylethyl)boronic acid]?
**A.** IC50 [1]: 0.611 µM; IC50 [2]: > 5 µM; IC50 [3]: > 5 µM

**Q.** With `C=CC(=O)N1CCC[C@@H]1CNC(=O)N[C@@H](Cc1ccccc1)B(O)O` [Example 36, ((R)-1-(3-(((R)-1-acryloylpyrrolidin-2-yl)methyl)ureido)-2-phenylethyl)boronic acid] as the compound, how does the IC50 [1] read?
**A.** Its IC50 is 1.14 µM.

**Q.** And the IC50 [2]?
**A.** Its IC50 is over 5 µM.

**Q.** And the IC50 [3]?
**A.** Its IC50 is over 5 µM.

**Q.** How did the IC50 [1] turn out when `C=CC(=O)N1CCC[C@H]1CNC(=O)N[C@@H](Cc1ccccc1)B(O)O` [Example 37, ((R)-1-(3-(((S)-1-acryloylpyrrolidin-2-yl)methyl)ureido)-2-phenylethyl)boronic acid] was run?
**A.** The IC50 was 4.53 µM.

**Q.** And the IC50 [2]?
**A.** The IC50 was over 5 µM.

**Q.** And the IC50 [3]?
**A.** Its IC50 is over 5 µM.

**Q.** For `C=CC(=O)N1CCCC[C@H]1CNC(=O)N[C@@H](Cc1ccccc1)B(O)O` [Example 38, ((R)-1-(3-(((S)-1-acryloylpiperidin-2-yl)methyl)ureido)-2-phenylethyl)boronic acid], which IC50 [1] is on record?
**A.** Its IC50 is over 5 µM.

**Q.** And the IC50 [2]?
**A.** Its IC50 is over 5 µM.

**Q.** What about the IC50 [3] of the same compound?
**A.** The IC50 was over 5 µM.

**Q.** `CC(C)(C)C=C(C#N)C(=O)N1CCC[C@H]1CNC(=O)N[C@@H](Cc1ccccc1)B(O)O` [Example 39, ((R)-1-(3-(((S)-1-(2-cyano-4,4-dimethylpent-2-enoyl)pyrrolidin-2-yl)methyl)ureido)-2-phenylethyl)boronic acid] was tested. Which IC50 [1] did it give?
**A.** Its IC50 is 0.0788 µM.

**Q.** And the IC50 [2]?
**A.** The IC50 was over 5 µM.

**Q.** And the IC50 [3]?
**A.** Its IC50 is over 5 µM.

**Q.** Which results are given for `CC(C)(C)C=C(C#N)C(=O)N1CCCC[C@H]1CNC(=O)N[C@@H](Cc1ccccc1)B(O)O` [Example 40, ((R)-1-(3-(((S)-1-(2-cyano-4,4-dimethylpent-2-enoyl)piperidin-2-yl)methyl)ureido)-2-phenylethyl)boronic acid]?
**A.** IC50 [1]: 0.669 µM; IC50 [2]: > 5 µM; IC50 [3]: > 5 µM

**Q.** With `C=CC(=O)N1CCC[C@@H]1CNC(=O)N[C@@H](Cc1coc2ccccc12)B(O)O` [Example 41, ((R)-1-(3-(((R)-1-acryloylpyrrolidin-2-yl)methyl)ureido)-2-(benzofuran-3-yl)ethyl)boronic acid] as the compound, how does the IC50 [1] read?
**A.** Its IC50 is 0.03 µM.

**Q.** And the IC50 [2]?
**A.** Its IC50 is over 5 µM.

**Q.** What about the IC50 [3] of the same compound?
**A.** Its IC50 is over 5 µM.

**Q.** For `Cc1ccc(C[C@H](NC(=O)NC[C@@H]2CCCN2C(=O)C(C#N)=CC(C)(C)C)B(O)O)cc1` [Example 42, ((R)-1-(3-(((S)-1-(2-cyano-4,4-dimethylpent-2-enoyl)pyrrolidin-2-yl)methyl)ureido)-2-(p-tolyl)ethyl)boronic acid], which IC50 [1] is on record?
**A.** The IC50 was 0.013 µM.

**Q.** What about the IC50 [2] of the same compound?
**A.** The IC50 was over 5 µM.

**Q.** And the IC50 [3]?
**A.** The IC50 was over 5 µM.

**Q.** Which results are given for `Cc1ccc(C[C@H](NC(=O)NC[C@H]2CCCN2C(=O)C(C#N)=CC(C)(C)C)B(O)O)cc1` [Example 43, ((R)-1-(3-(((R)-1-(2-cyano-4,4-dimethylpent-2-enoyl)pyrrolidin-2-yl)methyl)ureido)-2-(p-tolyl)ethyl)boronic acid]?
**A.** IC50 [1]: 0.0044 µM; IC50 [2]: > 5 µM; IC50 [3]: > 5 µM

**Q.** Which IC50 [1] does the source give for `Cc1ccc(C[C@H](NC(=O)OC[C@H]2CCCN(C(=O)C(C#N)=CC(C)(C)C)C2)B(O)O)cc1` [Example 44, ((R)-1-(((((S)-1-(2-cyano-4,4-dimethylpent-2-enoyl)piperidin-3-yl)methoxy)carbonyl)amino)-2-(p-tolyl)ethyl)boronic acid] here?
**A.** Its IC50 is 0.0022 µM.

**Q.** What about the IC50 [2] of the same compound?
**A.** Its IC50 is over 5 µM.

**Q.** And the IC50 [3]?
**A.** The IC50 was 2.85 µM.

**Q.** Which IC50 [1] does the source give for `CC(C)(C)C=C(C#N)C(=O)N1CCC[C@@H]1CNC(=O)N[C@@H](Cc1coc2ccccc12)B(O)O` [Example 45, ((R)-2-(benzofuran-3-yl)-1-(3-(((R)-1-(2-cyano-4,4-dimethylpent-2-enoyl)pyrrolidin-2-yl)methyl)ureido)ethyl)boronic acid] here?
**A.** The IC50 was 0.0047 µM.

**Q.** What about the IC50 [2] of the same compound?
**A.** The IC50 was over 5 µM.

**Q.** And the IC50 [3]?
**A.** The IC50 was 2.07 µM.
